Measurements published in patent US4795754A, “3-(1H-tetrazol-5-y1)oxanilic acid and salts thereof and pharmaceutical compositions containing them” (Wakamoto Pharmaceutical Co., Ltd., priority 1986, dated 1989).
Like-named read-outs stand apart in the source and are kept apart here.

What was measured:
[1] = test system: metachromatic cells in nasal mucus; assay: Degranulation inhibitory effect on metachromatic cells in nasal mucus, experimental allergic rhinitis (Test 2); assay type: in vivo, Wistar rats; settings: intranasal 0.5 ml/100 g, 5 minutes before antigen, average of 5
Experimental: This test was carried out to examine the degranulation inhibitory effect of the compounds of the present invention on the metachromatic cells in nasal mucus originated from a rat suffering from experimental allergic rhinitis.
Wistar rats were passively sensitized by subcutaneously injecting anti-Cryptomeria Japonica-Ascaris serum of rat. After anesthetizing the rat with pentobarbital sodium, they were fixed while lying them on their back and the cervixes thereof were subjected to median incision. A polyethylene tube having an outer diameter of 1 mm was inserted into the internal nares of each rat through the incised portion of trachea, one end thereof was connected to a perfusion pump and sterilized physiologic saline warmed at 37° C. was perfused therethrough at a flow rate of 0.25 ml/min. 1 ml of the antigen extracted from pollen of Japanese cedar (10 micro liter per ml) was sprayed in both internal nares by means of an atomizer for internal nares and the perfusate delivered from the internal nares was recovered for 20 minutes. The number of degranulated cells per 100 metachromatic cells present in the recovered samples were scored and the value was regarded as that of the control (Nc).
The compound to be tested were dissolved in 0.15M phosphate buffer so as to obtain a solution of a desired concentration, each solution was administered through both of the interanal nares in an amount of 0.5 ml/100 g body weight, at a time 5 minutes before the spray of the antigen and the number of degranulated cells (Nt) was scored according to the same manner as described above. The rate of inhibitory effect on the degranulation (Rd) was estimated from the following relation: [formula] Each experimental results is the average of 5 measurements.

[2] = test system: rats suffering from experimental allergic rhinitis; assay: Nasal mucus secretion inhibitory effect, experimental allergic rhinitis (Test 3); assay type: in vivo, Wistar rats; settings: brilliant blue in nasal perfusate, average of 5
Source text: This test was effected to examine the nasal mucus secretion inhibitory effect of the compounds according to the present invention on the rats suffering from experimental allergic rhinitis.
Wistar rats were passively sensitized by subcutaneously injecting anti-Cryptomeria Japonica-As serum of rat. After anesthetizing the rat with pentobarbital sodium, they were fixed while lying them on their back and the cervixes thereof were subjected to median incision. A polyethylene tube having an outer diameter of 1 mm was inserted into the internal nares of each rat through the incised portion of trachea, one end thereof was connected to a perfusion pump and sterilized physiologic saline warmed at 37° C. was perfused therethrough at a flow rate of 0.25 ml/min.
Then, 0.5 ml/100 g body weight of 4% brilliant blue was injected into the rat through the caudal vein, then the perfusate was recovered for 10 minutes and the concentration of the dye was determined which was regarded as the Ag (-) value of the control. 1 ml of the antigen extracted from pollen of Japanese cedar (1 micro liter per ml) was sprayed in both internal nares by means of an atomizer for internal nares, the antigen remaining in the internal nares was washed out with physiologic saline and the perfusate was then recovered for 30 minutes and the concentration of the dye was determined to estimate Ag (+) value of the control.
The compound to be tested were dissolved in 0.15 M phosphate buffer so as to form a solution of a desired concentration. Each of the solutions thus prepared was sprayed in both internal nares in an amound of 0.5 ml/100g body weight at the time of 5 minutes before the spray of the antigen and the concentration of the dye was determined on each sample. In this connection, the measurement of the dye concentration was effected according to the spectrophotometric method developed by M. Kojima et al. (Allergy, 1986, Vol. 35, pp. 180-187).

[3] = test system: allergic conjunctivitis of guinea pigs; assay: Allergic conjunctivitis, histamine content in lacrimal fluid (Test 4); assay type: in vivo, Hartley guinea pigs
Experimental: (§1) This test was carried out to estimate the therapeutic effect of the compounds according to the present invention on the allergic conjunctivitis of guinea pigs.
(§2) Hartley guinea pigs were passively sensitized by intravenously injecting 1 ml of anti-DNP-As serum. After 8 days, an antigen solution (DNP-BSA: 2.5 mg/ml) was dropped on the sinistral eye once a minute over 10 minutes, then the lacrimal fluid was collected with filter paper over 10 minutes while the inflammatory reaction of the eye was visually observed during the collection of the lacrimal fluid. At 10 minutes after the completion of the dropping of the antigen solution, the compounds to be examined were dropped on the eye once a minute over 10 minutes and thereafter the collection of the lacrimal fluid and the visual observation of the inflammatory reaction of the eye were likewise effected. Then, the amount of histamine present in the collected lacrimal fluid was determined according to the Komatsu's method (Michitoshi KOMATSU, Allergy, 1978, Vol. 27, pp. 67-74).
(§3) In addition, the concentration of MTCC used was 10^-3 g/ml and that of DSCG was 2×10^-2 g/ml.

[4] = test system: allergic conjunctivitis of guinea pigs; assay: Allergic conjunctivitis, visual observation of inflammatory reaction of the eye (Test 4); assay type: in vivo, Hartley guinea pigs; settings: MTCC 10^-3 g/ml, DSCG 2×10^-2 g/ml, dropped on the eye after antigen
Experimental: as §1, §2, §3

[5] = Japanese Journal of Pharmacology, 1982, Vol. 32, pp. 689-697; cited from earlier work
[6] = Acute toxicity test, mouse (Test 5); assay type: in vivo; settings: mouse, in vivo, Male, 14 days observation
Experimental: (§4) MTCC was administered to ddY Mice (body weight 20 to 23 g; 10 animals per test group) and Wistar rats (body weight 110 to 130 g; 10 animals per test group) through intravenous and oral routes and it was also administered to Beagle dogs (7 months old; 3 animals per test group) through oral route.
(§5) MTCC was administered to rats and mice in the form of a solution thereof in 0.1 M phosphate buffer in the case of intravenous administration and in the form of a suspension in 0.5% CMC-Na in the case of oral administration. While it was orally administered to dogs in the form of a capsule filled with the original powder.

Mouse = assay: Acute toxicity test, mouse (Test 5); assay type: in vivo; settings: Female, 14 days observation
Experimental: as §4, §5

[7] = Acute toxicity test, rat (Test 5); assay type: in vivo; settings: rat, in vivo, Male, 14 days observation
Experimental: as §4, §5

Rat = assay: Acute toxicity test, rat (Test 5); assay type: in vivo; settings: Female, 14 days observation
Experimental: as §4, §5

[8] = Acute toxicity test, dog (Test 5); assay type: in vivo; settings: dog, in vivo, po; Male, p.o. (capsule); 14 days observation
Experimental: as §4, §5

Dog = assay: Acute toxicity test, dog (Test 5); assay type: in vivo; settings: Female, p.o. (capsule); 14 days observation
Experimental: as §4, §5

[9] = Water solubility / hydrophilicity (statement in words); assay type: physicochemical
[10] = After Dropping of Antigen (before compound)
[11] = After Dropping of Compound, MTCC 10^-3 g/ml, DSCG 2×10^-2 g/ml

SMILES	Rate of Inhibition of Degranulation Rd (%) ([1]; Concn. 10^-4 g/ml)	Rate of Inhibition of Degranulation Rd (%) ([1]; Concn. 10^-5 g/ml)	Rate of Inhibition of Degranulation Rd (%) ([1]; Concn. 10^-6 g/ml)	Rate of Inhibition of Degranulation Rd (%) ([1]; Concn. 10^-7 g/ml)	Rate of Inhibition of Degranulation Rd (%) ([1]; Concn. 10^-8 g/ml)	Dye Concentration ([2]; Concn. 10^-4 g/ml)	Dye Concentration ([2]; Concn. 10^-5 g/ml)	Dye Concentration ([2]; Concn. 10^-6 g/ml)	Dye Concentration ([2]; Concn. 10^-7 g/ml)	Dye Concentration ([2]; Concn. 10^-8 g/ml)	Histamine Content in Lacrimal Fluid [3, 10]	Histamine Content in Lacrimal Fluid [3, 11]	Therapeutic effect on swelling and congestion of the conjunctiva (visual observation) [4]	also measured
O=C(O)c1cc(=O)c2c(OCC(O)COc3cccc4oc(C(=O)O)cc(=O)c34)cccc2o1 [DSCG, Disodium Chromoglycate, reference compound]	90.3%	71.5%	39.4%	8.1%	-1.7%	0.65 micro gr./ml	0.89 micro gr./ml	1.01 micro gr./ml	1.44 micro gr./ml	1.77 micro gr./ml	6.7 ng	6.4 ng	relatively low therapeutic effect	–
CCCCOC(=O)C(=O)Nc1cccc(-c2nnn[nH]2)c1 [MTB, Butyl 3(1H--tetrazol5-yl)oxanilate]	–	–	–	–	–	–	–	–	–	–	–	–	–	Water solubility (in words) [5]: hydrophobic or less soluble in water
O=C(O)C(=O)Nc1cccc(-c2nnn[nH]2)c1 [MTCC, 3-(1H-tetrazol-5-yl)oxanilic acid]	94.3%	75.1%	33.0%	15.0%	-1.4%	0.64 micro gr./ml	0.85 micro gr./ml	0.99 micro gr./ml	1.37 micro gr./ml	1.74 micro gr./ml	6.3 ng	2.4 ng	excellent therapeutic effect	Histamine content in the lacrimal fluid (in words) ([3]; by the administration of MTCC, 10^-3 g/ml): substantially reduced; LD50 at 336 h ([6]; iv): > 225 mg/kg; LD50 at 336 h ([6]; po): > 2000 mg/kg; Acute Toxicity LD50 (Mouse; i.v.): > 225 mg/kg; Acute Toxicity LD50 (Mouse; p.o.): > 2000 mg/kg; LD50 at 336 h ([7]; iv): > 180 mg/kg; LD50 at 336 h ([7]; po): > 2000 mg/kg; Acute Toxicity LD50 (Rat; i.v.): > 180 mg/kg; Acute Toxicity LD50 (Rat; p.o.): > 2000 mg/kg; LD50 at 336 h [8]: > 2000 mg/kg; Acute Toxicity LD50 (Dog): > 2000 mg/kg; Water solubility (in words) [9]: hydrophyilic or soluble in water
